Data as given in patent publication US11707557B2, “Compositions and devices incorporating water-insoluble therapeutic agents and methods of the use thereof” (COOK MEDICAL TECHNOLOGIES LLC, priority 2014, dated 2023).
In brackets after ≈: the same amount, converted by molar mass.

Key:
[1] = physchem
[2] = 24 h
[3] = Drug release from injectable PG:gallate pastes (60:40) into PBS; assay type: physicochemical; settings: 60:40 PG:EGCG or PG:tannic acid, 2% w/w drug, PBS pH 7.4, 37° C.
Description: Methods: 60:40% w/w PG:EGCG or PG:tannic acid was used in these studies. 588 mg of propylene glycol was weighed into a 20 mL glass vials and 392 of EGCG or tannic acid was added followed by vortexing to distribute and dissolve the gallates. The vials were warmed to 60° C. and vortexed until all the contents were in solution. At this time 20 mg of drug was added (2% w/w) and vortexed until in solution. The following drugs were used: paclitaxel, docetaxel, retinoic acid, amphotericin B, and curcumin. 100 mg of each paste was weighed into the base of a 15 mL glass test tube and 10 mL of phosphate buffered saline was added at pH 7.4 and the tubes were incubated at 37° C. for certain times. All 10 mL of the PBS release media was removed and 1 mL analyzed by HPLC for drug content. 10 mL of fresh PBS was then added to all tubes

[4] = Drug concentrations obtained using EGCG at 50 mg per ml (microscopic check for particulates); assay type: physicochemical
Description: EGCG at 50 mg/ml and drug at approximately 250 micrograms per ml were dissolved in the listed solvent and dried down in a test tube under nitrogen. 1 ml of water was added, followed by vortexing. The solutions were examined for particulate matter under a microscope. If no particulates were present, the process was repeated with a higher drug amount. All the tested drugs remained in solution at the listed concentrations except for nystatin and hesperidin.

[5] = tested on: Caco2 cells; assay: Uptake and transfer of amphoterecin B into Caco2 cells; assay type: in vitro ADME, human; settings: 3 hours, versus ambisome
Description: Caco2 cells were seeded onto 0.3 um transwell membranes and treated as in Example 9. A solution of amphoterecin B (250 ug per ml) in EGCG (25 mg per ml), tannic acid (25 mg/ml) in Hanks buffer pH 7.4. or ambisome was added to the top well for 3 hours. The bottom reservoir was collected and treated as in Example 8.

solubility ([1]; aqueous with cosolvent or surfactant or cyclodextrin, thermodynamic from solid, drug concentration solubilised at maximum EGCG concentration): ~1800 µg/mL (≈ 1950 µM)
solubility ([1]; aqueous with cosolvent or surfactant or cyclodextrin, thermodynamic from solid, drug concentration solubilised at maximum tannic acid concentration): ~5700 µg/mL (≈ 6170 µM)
solubility ([1]; water, free solubility in water): 1 to 10 µg/mL (≈ 1.08 to 10.8 µM)
stability of EGCG solutions of the drug [2]: stable for 24 hours
stability of tannic acid solutions of the drug [2]: stable for 24 hours
Visual appearance [4]: clear
Drug Concentration ([4]; 1 ml of water): 125 microgram/ml
Particulates present ([4]; under a microscope): no
drug uptake and transport through the cells ([5]; 250 ug per ml in EGCG 25 mg per ml): much higher levels
drug uptake and transport through the cells ([5]; 250 ug per ml in tannic acid 25 mg/ml): much higher levels
SMILES: C[C@@H]1[C@H](O)[C@@H](C)/C=C/C=C/C=C/C=C/C=C/C=C/C=C/[C@H](O[C@@H]2O[C@H](C)[C@@H](O)[C@H](N)[C@@H]2O)C[C@@H]2O[C@](O)(C[C@@H](O)C[C@@H](O)[C@H](O)CC[C@@H](O)C[C@@H](O)CC(=O)O[C@H]1C)C[C@H](O)[C@H]2C(=O)O [amphotericin, amphotericin B]
drug release from PG:gallate paste [3]: relatively controlled release of the drug over 24 hours
